Experiments:
[1] = target: T1, Cytoplasmic tyrosine-protein kinase BMX (Homo sapiens, UniProt P51813); test: Inhibition of Bmx (unknown origin) using GST-SLP-76 as peptide substrate incubated for 10 mins in presence of [gamma-33P]ATP by scintillation counter assay
T1 sequence (P51813 whole entry): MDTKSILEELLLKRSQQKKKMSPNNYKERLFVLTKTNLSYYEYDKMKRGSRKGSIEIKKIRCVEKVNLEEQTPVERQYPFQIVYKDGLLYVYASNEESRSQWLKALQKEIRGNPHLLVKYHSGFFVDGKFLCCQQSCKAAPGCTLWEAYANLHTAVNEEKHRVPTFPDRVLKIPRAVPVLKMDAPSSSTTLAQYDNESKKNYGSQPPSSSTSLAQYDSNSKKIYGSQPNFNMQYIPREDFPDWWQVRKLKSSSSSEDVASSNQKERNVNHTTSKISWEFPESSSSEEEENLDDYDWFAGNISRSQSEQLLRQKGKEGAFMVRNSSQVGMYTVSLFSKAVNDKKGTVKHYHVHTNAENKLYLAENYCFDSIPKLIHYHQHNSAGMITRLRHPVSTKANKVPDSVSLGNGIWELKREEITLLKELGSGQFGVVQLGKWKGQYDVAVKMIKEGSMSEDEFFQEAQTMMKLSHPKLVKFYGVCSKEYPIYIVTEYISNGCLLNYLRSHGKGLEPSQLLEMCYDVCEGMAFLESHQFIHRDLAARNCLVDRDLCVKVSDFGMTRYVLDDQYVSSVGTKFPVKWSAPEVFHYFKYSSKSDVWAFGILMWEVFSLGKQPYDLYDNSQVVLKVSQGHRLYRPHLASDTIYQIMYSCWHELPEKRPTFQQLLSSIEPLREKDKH

T-cell line = test: Anti-proliferative activity against irradiated APC induced human T cell incubated for 3 days; assay type: functional, cell-based; conditions: light or radiation study, 72 h
[2] = target: RAC-alpha serine/threonine-protein kinase (Homo sapiens, UniProt P31749); test: Inhibition of Akt1 (unknown origin) using GST-SLP-76 as peptide substrate incubated for 10 mins in presence of [gamma-33P]ATP by scintillation counter assay
Sequence of RAC-alpha serine/threonine-protein kinase (P31749 whole entry): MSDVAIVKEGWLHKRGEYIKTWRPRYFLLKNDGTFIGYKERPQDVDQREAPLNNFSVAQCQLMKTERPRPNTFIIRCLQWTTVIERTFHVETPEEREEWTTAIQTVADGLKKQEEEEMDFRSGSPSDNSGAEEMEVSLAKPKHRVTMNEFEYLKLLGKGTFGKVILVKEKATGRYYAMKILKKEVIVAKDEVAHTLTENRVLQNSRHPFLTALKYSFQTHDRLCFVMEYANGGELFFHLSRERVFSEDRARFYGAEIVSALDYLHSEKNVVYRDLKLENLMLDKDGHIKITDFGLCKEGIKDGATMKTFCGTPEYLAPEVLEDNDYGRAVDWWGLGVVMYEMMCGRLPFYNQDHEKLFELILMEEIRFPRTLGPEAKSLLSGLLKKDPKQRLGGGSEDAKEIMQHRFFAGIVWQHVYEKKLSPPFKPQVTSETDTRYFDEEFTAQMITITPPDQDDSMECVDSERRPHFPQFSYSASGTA

[3] = target: T2, Tyrosine-protein kinase Tec (Homo sapiens, UniProt P42680); test: Inhibition of Tec (unknown origin) using GST-SLP-76 as peptide substrate incubated for 10 mins in presence of [gamma-33P]ATP by scintillation counter assay
T2 sequence (P42680 whole entry): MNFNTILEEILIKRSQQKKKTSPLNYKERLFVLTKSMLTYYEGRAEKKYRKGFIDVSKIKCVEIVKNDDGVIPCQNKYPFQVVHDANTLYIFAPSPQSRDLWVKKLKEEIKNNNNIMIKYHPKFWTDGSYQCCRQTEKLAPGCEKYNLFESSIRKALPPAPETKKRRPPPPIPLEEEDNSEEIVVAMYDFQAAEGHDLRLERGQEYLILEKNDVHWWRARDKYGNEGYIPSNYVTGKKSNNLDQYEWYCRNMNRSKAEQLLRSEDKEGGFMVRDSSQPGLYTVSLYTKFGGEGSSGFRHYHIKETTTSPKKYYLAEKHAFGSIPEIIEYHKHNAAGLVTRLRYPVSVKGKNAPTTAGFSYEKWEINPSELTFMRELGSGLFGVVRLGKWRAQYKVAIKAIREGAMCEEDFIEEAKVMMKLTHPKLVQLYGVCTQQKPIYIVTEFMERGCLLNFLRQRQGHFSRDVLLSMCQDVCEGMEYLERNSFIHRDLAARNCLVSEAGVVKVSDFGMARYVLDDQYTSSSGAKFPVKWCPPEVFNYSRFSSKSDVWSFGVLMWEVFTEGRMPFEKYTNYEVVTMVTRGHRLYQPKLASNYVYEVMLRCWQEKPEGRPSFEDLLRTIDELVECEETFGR

[4] = target: Tyrosine-protein kinase Fyn (Homo sapiens, UniProt P06241); test: Inhibition of Fyn (unknown origin) using GST-SLP-76 as peptide substrate incubated for 10 mins in presence of [gamma-33P]ATP by scintillation counter assay
Sequence of Tyrosine-protein kinase Fyn (P06241 whole entry): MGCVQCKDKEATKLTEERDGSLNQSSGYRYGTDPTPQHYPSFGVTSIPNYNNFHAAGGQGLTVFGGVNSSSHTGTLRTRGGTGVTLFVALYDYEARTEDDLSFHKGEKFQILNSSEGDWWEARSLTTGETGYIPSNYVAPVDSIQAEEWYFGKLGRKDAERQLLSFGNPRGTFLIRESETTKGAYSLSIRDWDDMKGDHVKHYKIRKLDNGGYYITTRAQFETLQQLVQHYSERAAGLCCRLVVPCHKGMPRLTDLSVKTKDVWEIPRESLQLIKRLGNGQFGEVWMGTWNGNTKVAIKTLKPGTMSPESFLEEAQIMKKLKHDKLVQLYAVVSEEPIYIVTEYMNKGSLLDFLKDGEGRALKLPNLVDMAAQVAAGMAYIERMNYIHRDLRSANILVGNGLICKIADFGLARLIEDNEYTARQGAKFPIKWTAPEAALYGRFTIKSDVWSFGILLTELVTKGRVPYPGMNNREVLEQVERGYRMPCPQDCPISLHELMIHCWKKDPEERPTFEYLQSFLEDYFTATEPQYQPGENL

[5] = target: Tyrosine-protein kinase BTK (Homo sapiens, UniProt Q06187); test: Inhibition of Btk (unknown origin) using GST-SLP-76 as peptide substrate incubated for 10 mins in presence of [gamma-33P]ATP by scintillation counter assay
Sequence of Tyrosine-protein kinase BTK (Q06187 whole entry): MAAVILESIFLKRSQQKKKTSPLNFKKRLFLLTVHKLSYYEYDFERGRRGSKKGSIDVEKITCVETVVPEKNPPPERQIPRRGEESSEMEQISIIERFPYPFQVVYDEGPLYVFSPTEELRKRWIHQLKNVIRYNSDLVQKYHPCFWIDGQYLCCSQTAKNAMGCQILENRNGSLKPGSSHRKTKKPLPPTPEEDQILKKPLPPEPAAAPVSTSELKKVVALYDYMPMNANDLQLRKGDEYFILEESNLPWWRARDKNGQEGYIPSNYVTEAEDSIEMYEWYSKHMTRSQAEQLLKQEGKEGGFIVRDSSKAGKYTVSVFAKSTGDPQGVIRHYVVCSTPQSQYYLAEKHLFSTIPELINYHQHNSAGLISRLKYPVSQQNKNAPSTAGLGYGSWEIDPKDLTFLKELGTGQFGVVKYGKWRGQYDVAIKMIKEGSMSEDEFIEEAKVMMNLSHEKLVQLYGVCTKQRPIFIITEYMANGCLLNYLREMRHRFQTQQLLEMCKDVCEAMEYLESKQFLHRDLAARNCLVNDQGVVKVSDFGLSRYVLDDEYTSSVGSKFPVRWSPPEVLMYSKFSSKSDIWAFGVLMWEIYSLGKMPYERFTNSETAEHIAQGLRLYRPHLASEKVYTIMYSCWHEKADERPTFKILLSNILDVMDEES

[6] = target: Mitogen-activated protein kinase 3 (Homo sapiens, UniProt P27361); test: Inhibition of ERK-1 (unknown origin) using GST-SLP-76 as peptide substrate incubated for 10 mins in presence of [gamma-33P]ATP by scintillation counter assay
Sequence of Mitogen-activated protein kinase 3 (P27361 whole entry): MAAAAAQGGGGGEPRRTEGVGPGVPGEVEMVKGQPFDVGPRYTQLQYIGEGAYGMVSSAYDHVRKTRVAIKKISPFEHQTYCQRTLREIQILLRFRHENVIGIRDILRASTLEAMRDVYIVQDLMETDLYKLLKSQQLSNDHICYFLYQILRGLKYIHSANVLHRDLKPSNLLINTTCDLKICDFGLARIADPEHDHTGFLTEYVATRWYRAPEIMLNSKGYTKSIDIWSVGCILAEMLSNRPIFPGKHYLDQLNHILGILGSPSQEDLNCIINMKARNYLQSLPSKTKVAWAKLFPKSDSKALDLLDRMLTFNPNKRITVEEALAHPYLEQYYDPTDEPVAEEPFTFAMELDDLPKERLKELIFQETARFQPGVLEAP

[7] = target: T3, Tyrosine-protein kinase ITK/TSK (Homo sapiens) (UniProt Q08881); test: Inhibition of Itk in human Jurkat T cells assessed as inhibition of PLCgamma1 phosphorylation incubated for 20 mins in presence of CD3 antibody G19-4 by Western blotting analysis; assay type: cell-based; conditions: dose 0.1-10 µM
T3 sequence (whole entry): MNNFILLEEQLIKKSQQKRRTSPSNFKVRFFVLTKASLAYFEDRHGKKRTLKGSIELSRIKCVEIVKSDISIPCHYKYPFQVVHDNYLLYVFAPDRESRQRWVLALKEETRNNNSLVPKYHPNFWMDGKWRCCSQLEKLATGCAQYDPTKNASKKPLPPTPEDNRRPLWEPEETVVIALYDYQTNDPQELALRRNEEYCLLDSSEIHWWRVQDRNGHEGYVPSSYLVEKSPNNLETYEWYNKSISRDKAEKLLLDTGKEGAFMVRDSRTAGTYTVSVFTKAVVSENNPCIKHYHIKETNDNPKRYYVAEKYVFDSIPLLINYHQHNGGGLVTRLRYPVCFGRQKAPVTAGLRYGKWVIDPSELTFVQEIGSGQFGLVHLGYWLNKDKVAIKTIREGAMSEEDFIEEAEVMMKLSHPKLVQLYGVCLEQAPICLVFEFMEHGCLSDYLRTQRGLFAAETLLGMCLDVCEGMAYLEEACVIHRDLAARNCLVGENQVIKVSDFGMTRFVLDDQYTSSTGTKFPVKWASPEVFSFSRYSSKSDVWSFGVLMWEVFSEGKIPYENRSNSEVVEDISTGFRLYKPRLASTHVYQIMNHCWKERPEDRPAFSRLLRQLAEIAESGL

[8] = Inhibition of CaMKII (unknown origin) using GST-SLP-76 as peptide substrate incubated for 10 mins in presence of [gamma-33P]ATP by scintillation counter assay; parameters: species or system Homo sapiens

| IC50 [1] [µM] | IC50 [2] [µM] | IC50 [3] [µM] | IC50 [4] [µM] | IC50 [5] [µM] | IC50 [6] [µM] | inhibition [7] | SMILES | IC50 (T-cell line) [µM] | IC50 [8] [µM] |
| --- | --- | --- | --- | --- | --- | --- | --- | --- | --- |
| > 50 | > 50 | > 50 | 8.6 | > 50 | > 50 | Dose-Dependent Effect | CC(=O)N1CCN(C(=O)c2cc(CSc3cnc(NC(=O)c4ccc(CNC(C)C(C)(C)C)cc4)s3)cc(C)c2C)CC1 (stereo not drawn) | 0.35 | > 50 |
| > 50 | > 50 | 17 | 1.1 | 4.1 | > 50 | Dose-Dependent Effect | COc1cc(C)c(Sc2cnc(NC(=O)c3ccc(CNC(C)C(C)(C)C)cc3)s2)cc1C(=O)N1CCN(C(C)=O)CC1 (stereo not drawn) | 0.43 | 33.5 |
